Experimental findings from US9096598B2 (Merck Sharp & Dohme Corp., priority 2011, dated 2015) are described below.

Assay [1] concerns the target T1, JAK3 (Homo sapiens, UniProt P52333).
T1 construct: recombinant purified GST-tagged catalytic domain for each enzyme; purchased Invitrogen M4290
In words: Jak Biochemical HTRF Assay (JAK3). The conditions noted are these: recombinant purified GST-tagged catalytic domain, [ATP] 2.9 μM, values given as range classes. The method, then:
(§1) Jak Biochemical HTRF Assay Protocol
(§2) The ability of compounds to inhibit the activity of JAK1, JAK2, JAK3, and Tyk2 was measured using a recombinant purified GST-tagged catalytic domain for each enzyme (Invitrogen JAK1 #M4290, JAK2 #M4290, JAK3 #M4290, Tyk2 #M4290) in an HTRF format biochemical assay. The reactions employed a common peptide substrate, LCB-EQEDEPEGDYFEWLW-NH2 (in-house). The basic assay protocol is as follows: First, 250 nL of diluted compounds in DMSO were dispensed into the wells of a dry 384-well Black plate (Greiner #781076) using a Labcyte Echo 555 acoustic dispenser. Subsequent reagent additions employed an Agilent Bravo. Next, 18 μL of 1.11× enzyme and 1.11× substrate in 1× assay buffer (Invitrogen kinase buffer #PV3189, 2 mM DTT, 0.05% BSA) were added to the wells and shaken and then preincubated for 30 minutes at room temperature to allow compound binding to equilibrate. After equilibration, 2 μL of 10×ATP in 1× assay buffer was added to initiate the kinase reaction and the plates were shaken and then incubated at room temperature for 120 minutes. At the end of the incubation, 20 μL of 2× stop buffer (streptavidin-Dylight 650 (Thermo #84547B/100 mL), Eu-tagged pY20 antibody (Perkin Elmer #AD0067), EDTA, HEPES, and Triton) was added to quench the reaction. Plates were shaken and centrifuged and then incubated 60 minutes at room temperature and then read on a Perkin Elmer Envision (λex=337 nm, λem=665 and 615 nm, TRF delay time=20 μs). HTRF signal=10,000*665 nm reading/615 nm reading. After normalization to untreated controls, the percent inhibition of the HTRF signal at each compound concentration was calculated. The plot of percent inhibition versus the log of compound concentration was fit with a 4-parameter dose response equation to calculate IC50 values.
(§3) Final reaction conditions were:
(§4) Examples of the instant invention were evaluated in JAK2 and JAK3 in vitro binding assays. Table 13 tabulates the biological data disclosed for the instant invention as a range of JAK2 and JAK3 IC50 values (A: IC50≦10 nM; B: 10 nM>IC50≦500 nM C: IC50>500 nM).
(Time-resolved FRET reads energy transfer from a long-lived donor to a nearby acceptor.)

Assay [2] has as its target T2, JAK2 (Homo sapiens, UniProt O60674).
T2 construct: recombinant purified GST-tagged catalytic domain for each enzyme; purchased Invitrogen M4290
In words: Jak Biochemical HTRF Assay (JAK2). The settings on record: recombinant purified GST-tagged catalytic domain, [ATP] 8.5 μM, values given as range classes. Here is the method: as §1, §2, §3, §4

In general, IC50 refers to the concentration needed to halve the response being measured.

T1 sequence (P52333 822-1111 limits assumed): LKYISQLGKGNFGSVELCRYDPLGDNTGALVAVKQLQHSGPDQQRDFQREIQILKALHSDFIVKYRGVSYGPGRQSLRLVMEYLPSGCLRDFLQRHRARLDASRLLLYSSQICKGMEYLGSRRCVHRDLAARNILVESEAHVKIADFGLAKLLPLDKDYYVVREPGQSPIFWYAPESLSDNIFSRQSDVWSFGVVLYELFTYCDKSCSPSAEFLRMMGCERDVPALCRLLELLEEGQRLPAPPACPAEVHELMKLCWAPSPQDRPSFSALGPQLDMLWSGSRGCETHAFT
T2 sequence (O60674 849-1124 limits assumed): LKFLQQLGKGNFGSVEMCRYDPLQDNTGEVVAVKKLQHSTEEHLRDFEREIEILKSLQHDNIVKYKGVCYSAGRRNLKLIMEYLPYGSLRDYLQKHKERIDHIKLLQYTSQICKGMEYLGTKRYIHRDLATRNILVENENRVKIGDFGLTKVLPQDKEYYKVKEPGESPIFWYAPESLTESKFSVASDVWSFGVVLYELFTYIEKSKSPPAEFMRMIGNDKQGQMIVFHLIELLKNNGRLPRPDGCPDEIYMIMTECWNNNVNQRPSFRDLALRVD

With `NC(=O)c1cnc2[nH]cc(-c3cncc(N[C@@H]4CCCC[C@@H]4C(=O)NCC(F)(F)F)c3)c2c1` [Example 1-40, 3-[5-({(1R,2S)-2-[(2,2,2-trifluoroethyl)carbamoyl]cyclo-hexyl}amino)pyridin-3-yl]-1H-pyrrolo[2,3-b]pyridine-5-carboxamide], the IC50 in assay [1] and in assay [2] was at most 10 nM in each case.

As to `O=C(NCC(F)(F)F)[C@H]1CCCC[C@H]1Nc1cnnc(-c2c[nH]c3ncc(Cl)cc23)n1` [Example 1-19, (1S,2R)-2-{[3-(5-chloro-1H-pyrrolo[2,3-b]pyridin-3-yl)-1,2,4-triazin-5-yl]amino}-N-(2,2,2-trifluoroethyl)cyclohexane-carboxamide], the IC50 in assay [1] and in assay [2] was 10 to 500 nM in each case.

Turning to `C[C@@H](Nc1cncc(-c2c[nH]c3ncc(F)cc23)c1)C(=O)NCC(F)(F)F` [Example 1-30, N~2~-[5-(5-fluoro-1H-pyrrolo[2,3-b]pyridin-3-yl)pyridin-3-yl]-N-(2,2,2-trifluoroethyl)-D-alaninamide], the IC50 in assay [1] and in assay [2] was 10 to 500 nM each time.

For the molecule `CC1c2ncc(C(F)(F)F)n2CCN1c1cnnc(-c2c[nH]c3ncc(C(N)=O)cc23)n1` (stereo not shown) [Example 1-15, 3-{5-[8-methyl-3-(trifluoromethyl)-5,6-dihydroimidazo[1,2-a]pyrazin-7(8H)-yl]-1,2,4-triazin-3-yl}-1H-pyrrolo[2,3-b]pyridine-5-carboxamide], the IC50 in assay [1] is at most 10 nM; in assay [2] it was 10 to 500 nM.

On to `COC(=O)Nc1cnc2[nH]cc(-c3cncc(NC(C(=O)NCC(F)(F)F)C(C)C)c3)c2c1` (stereo not shown) [Example 7-1, Methyl {3-[5-({3-methyl-1-oxo-1-[(2,2,2-trifluoroethyl)amino]butan-2-yl}amino)pyridin-3-yl]-1H-pyrrolo[2,3-b]pyridin-5-yl}carbamate], for which the IC50 in assay [1] and in assay [2] was 10 to 500 nM in each case.

Regarding `CC(C)[C@H](Nc1cncc(-c2c[nH]c3ncc(OC4CCCC4)cc23)c1)C(=O)NCC(F)(F)F` [Example 2-5, N~2~-{5-[5-(cyclopentyloxy)-1H-pyrrolo[2,3-b]pyridin-3-yl]pyridin-3-yl}-N-(2,2,2-trifluoroethyl)valinamide], the IC50 was at most 10 nM in assay [1] and 10 to 500 nM in assay [2].

In the case of `CC(C)(Nc1cnnc(-c2c[nH]c3ncc(C#N)cc23)n1)C(=O)NCC(F)(F)F` [Example 1-7, N~2~-[3-(5-cyano-1H-pyrrolo[2,3-b]pyridin-3-yl)-1,2,4-triazin-5-yl]-2-methyl-N-(2,2,2-trifluoroethyl)alaninamide], the IC50 in assay [1] is at most 10 nM; in assay [2], 10 to 500 nM.

Consider `O=C(NCC(F)(F)F)[C@H]1CCCC[C@H]1Nc1cncc(-c2c[nH]c3ncc(Cl)cc23)c1` [Example 1-33, (1S,2R)-2-{[5-(5-chloro-1H-pyrrolo[2,3-b]pyridin-3-yl)pyridin-3-yl]amino}-N-(2,2,2-trifluoroethyl)cyclohexane-carboxamide], for which the IC50 is at most 10 nM in assay [1] and 10 to 500 nM in assay [2].

For `CC(C)[C@@H](Nc1cncc(-c2c[nH]c3ncc(Cl)cc23)c1)C(=O)NCC(F)(F)F` [Example 1-51, N~2~-[5-(5-chloro-1H-pyrrolo[2,3-b]pyridin-3-yl)pyridin-3-yl]-N-(2,2,2-trifluoroethyl)-D-valinamide], the IC50 in assay [1] and in assay [2] was at most 10 nM in each case.

For `CC(C)C(Nc1cncc(-c2c[nH]c3ncc(S(N)(=O)=O)cc23)c1)C(=O)NCC(F)(F)F` (stereo not shown) [Example 4-1, 3-Methyl-2-(5-(5-sulfamoyl-1H-pyrrolo[2,3-b]pyridin-3-yl)pyridin-3-ylamino)-N-(2,2,2-trifluoroethyl)butanamide], the IC50 is at most 10 nM in assay [1] and 10 to 500 nM in assay [2].

Regarding `CC(C)OC(=O)Nc1cnc2[nH]cc(-c3cncc(NC(C(=O)NCC(F)(F)F)C(C)C)c3)c2c1` (stereo not shown) [Example 7-3, 1-methylethyl {3-[5-({2-methyl-1-[(2,2,2-trifluoroethyl)carbamoyl]propyl}amino)pyridin-3-yl]-1H-pyrrolo[2,3-b]pyridin-5-yl}carbamate], the IC50 in assay [1] and in assay [2] was 10 to 500 nM in each case.

`CC(C)(O)[C@@H](Nc1cncc(-c2c[nH]c3ncc(Cl)cc23)c1)C(=O)NCC(F)(F)F` [Example 1-49, N~2~-[5-(5-chloro-1H-pyrrolo[2,3-b]pyridin-3-yl)pyridin-3-yl]-3-hydroxy-N-(2,2,2-trifluoroethyl)-D-valinamide]: the IC50 is at most 10 nM in assay [1] and 10 to 500 nM in assay [2].

In the case of `C[C@@H](Nc1cncc(-c2c[nH]c3ncc(Cl)cc23)c1)C(=O)NCC(F)(F)F` [Example 1-29, N~2~-[5-(5-chloro-1H-pyrrolo[2,3-b]pyridin-3-yl)pyridin-3-yl]-N-(2,2,2-trifluoroethyl)-D-alaninamide], the IC50 in assay [1] was at most 10 nM; in assay [2] it was 10 to 500 nM.

For the molecule `C[C@@H](Nc1cnnc(-c2c[nH]c3ncc(C(F)(F)F)cc23)c1)C(=O)NCC(F)(F)F` [Example 1-25, N-(2,2,2-trifluoroethyl)-N~2~-{6-[5-(trifluoromethyl)-1H-pyrrolo[2,3-b]pyridin-3-yl]pyridazin-4-yl}-D-alaninamide], the IC50 in assay [1] is at most 10 nM; in assay [2], 10 to 500 nM.

On to `CC(C)[C@@H](Nc1cncc(-c2c[nH]c3ncc(COC4CCN(C(=O)OC(C)(C)C)CC4)cc23)c1)C(=O)NCC(F)(F)F` [Example 9-6, tert-butyl 4-({3-[5-({(1R)-2-methyl-1-[(2,2,2-trifluoroethy)carbamoyl]propyl}amino)pyridin-3-yl]-1H-pyrrolo[2,3-b]pyridin-5-yl}methoxy)piperidine-1-carboxylate], for which the figures for the IC50 in assay [1] and in assay [2] were at most 10 nM and 10 to 500 nM, respectively.

As to `CC(C)[C@@H](Nc1cncc(-c2c[nH]c3ncc(Cl)cc23)c1)C(=O)NCC(F)(F)F` (single isomer, unassigned) [Example 1-1], the IC50 was at most 10 nM in assay [1] and 10 to 500 nM in assay [2].

Turning to `CC(C)[C@H](Nc1cncc(-c2c[nH]c3ncc(C#N)cc23)c1)C(=O)NCC(F)(F)F` [Example 1-41, N~2~-[5-(5-cyano-1H-pyrrolo[2,3-b]pyridin-3-yl)pyridin-3-yl]-N-(2,2,2-trifluoroethyl)valinamide], the IC50 is at most 10 nM in assay [1] and 10 to 500 nM in assay [2].

In the case of `CC(C)C(Nc1cncc(-c2c[nH]c3ncc(F)cc23)c1)C(=O)NCC(F)(F)F` (stereo not shown) [Example 1-2, 2-{[5-(5-fluoro-1H-pyrrolo[2,3-b]pyridin-3-yl)pyridin-3-yl]amino}-3-methyl-N-(2,2,2-trifluoroethyl)butanamide], the figures for the IC50 in assay [1] and in assay [2] were at most 10 nM and 10 to 500 nM, respectively.

In the case of `CC(C)[C@@H](Nc1cnnc(-c2c[nH]c3ncc(C(N)=O)cc23)n1)C(=O)NCC(F)(F)F` [Example 1-18, 3-[5-({(1R)-2-methyl-1-[(2,2,2-trifluoroethyl)carbamoyl]propyl}amino)-1,2,4-triazin-3-yl]-1H-pyrrolo[2,3-b]pyridine-5-carboxamide], the IC50 in assay [1] was at most 10 nM; in assay [2] it was 10 to 500 nM.

In the case of `CC(C)CNC(=O)c1cnc2[nH]cc(-c3cncc(N[C@@H](C(=O)NCC(F)(F)F)C(C)C)c3)c2c1` [Example 3-7, N-(2-methylpropyl)-3-[5-({(1R)-2-methyl-1-[(2,2,2-trifluoroethyl)carbamoyl]propyl}amino)pyridin-3-yl]-1H-pyrrolo[2,3-b]pyridine-5-carboxamide], the half-inhibitory concentration (IC50) in assay [1] is at most 10 nM; in assay [2] it was 10 to 500 nM.

Consider `CCCNC(=O)Nc1cnc2[nH]cc(-c3cncc(NC(C(=O)NCC(F)(F)F)C(C)C)c3)c2c1` (stereo not shown) [Example 6-2, N~2~-(5-{5-[(propylcarbamoyl)amino]-1H-pyrrolo[2,3-b]pylidin-3-yl}pyridin-3-yl)-N-(2,2,2-trifluoroethyl)valinamide], for which the IC50 in assay [1] was at most 10 nM; in assay [2] it was 10 to 500 nM.

As to `NC(=O)c1cnc2[nH]cc(-c3nncc(N[C@@H]4CCCC[C@@H]4C(=O)NCC(F)(F)F)n3)c2c1` [Example 1-23, 3-[5-({(1R,2S)-2-[(2,2,2-trifluoroethyl)carbamoyl]cyclo-hexyl}amino)-1,2,4-triazin-3-yl]-1H-pyrrolo[2,3-b]pyridine-5-carboxamide], the IC50 in assay [1] and in assay [2] was 10 to 500 nM throughout.

For the molecule `C[C@@H](Nc1cnnc(-c2c[nH]c3ncc(Cl)cc23)c1)C(=O)NCC(F)(F)F` [Example 1-24, N~2~-[6-(5-chloro-1H-pyrrolo[2,3-b]pyridin-3-yl)pyridazin-4-yl]-N-(2,2,2-trifluoroethyl)-D-alaninamide], the IC50 was at most 10 nM in assay [1] and 10 to 500 nM in assay [2].
